From PMC12463534, “Exploring the Anticancer Properties of 4-Phenylthiazole-Based Ru(II) and Os(II) Metallacycles Featuring 1-Methylimidazole as N-Donor Functionality” (Bioinorganic Chemistry and Applications, 2025) come the findings set out here.

Series [1] concerns Balb/c mice. Briefly: Toxicity experiments in Balb/c mice (MTD). As to conditions: mice, i.p. On the procedure:
Finally, we were interested in the anticancer activity of selected complexes of our panel in an in vivo mouse setting. Before injecting the compounds in tumor-bearing mice, toxicity experiments were performed. […] On the last day of therapy, most animals were sacrificed and tissues as well as tumors collected. Only four mice (per group) were kept to get information on the impact of the drugs on the overall survival.

Series [2] is described as follows: Ruthenium levels in tissues by ICP-MS. Format: in vivo. As to conditions: CT26-bearing mice, 2 h after last injection. On the procedure: Tumor-specific organs and blood serum, harvested from the other animals 2 h after the last injection (Figure 5(c)), were measured for the average ruthenium content by inductively coupled plasma mass spectrometry (ICP-MS) of tissue homogenates.
CT26 cells (5 × 10^5 cells in 50-μL serum-free medium) were injected subcutaneously (s.c.) into the right flank of 8–16-week-old BALB/c mice (Envigo Laboratories, San Pietro Al Natisone, Italy). After 3 days, therapy treatment started on five consecutive days for 2 weeks. Animals were treated i.p. with 50 mg/kg 1c and 3c (all dissolved in 10% DMSO in 0.9% NaCl, 12 mice per group). The solvent control animals received 10% DMSO in 0.9% NaCl. Every day, the animals were monitored for the overall health conditions and tumor size was measured regularly by caliper measurement. Tumor volumes (mm^3) were calculated using following formula: length × width^2/2. […] Tumor growth and possible side effects of the treatment were evaluated by daily recording the tumor size by caliper measurement and parameters of the animal's overall health conditions. In the tissue sampling arm at the experiment, the mice were sacrificed by cervical dislocation 2 h after the last treatment. Tumors as well as organs were collected. Additionally, blood was drawn and incubated for 25 min to allow blood clotting. To isolate serum and blood pellets, the blood was centrifuged for 10 min at 17,900 g at room temperature. The supernatant characterized as serum was transferred to a new tube and centrifuged again to remove residual red blood cells. All collected samples were stored at −20°C and further processed for platinum measurements via ICP-MS.
The ruthenium concentration was determined by ICP-MS analysis. Ruthenium and rhenium standards were derived from LabKings (LabKings B.V., The Netherlands). The total ruthenium content was determined with a quadrupole-based ICP-MS instrument Agilent 7800 (Agilent Technologies, Tokyo, Japan) equipped with the Agilent SPS 4 autosampler (Agilent Technologies, Tokyo, Japan) and a MicroMist nebulizer at a sample uptake rate of approximately 0.2 mL·min^−1. […] Argon was used as plasma gas (15 L·min^−1) and as carrier gas (∼1.08 L·min^−1). The integration time was set to 0.1 s, and measurements were performed in 6 replicates with 100 sweeps. Rhenium served as internal standard for ruthenium.

Series [3] in a line: Solubility in 1% DMF/PBS. An excerpt: Solubility is an important factor for the application of metallodrugs. DMF was used as solubilizer to allow comparison to the respective chlorido complexes where the usage of DMSO would lead to stable DMSO adducts.
As the coordinated p-cym and leaving groups are present in all synthesized complexes, we focused on the differently substituted 4-phenylthiazoles for estimated changes in lipophilicity.

Series [4] relates to HCT116 multicellular tumor spheroids (3D). Briefly: Resazurin assay, HCT116 3D multicellular tumor spheroids. As to conditions: read-out: IC50 3D; HCT116 3D spheroids, resazurin assay, 96 h exposure. (In general: Alamar Blue is a resazurin reagent that responds to reducing activity.)
Procedure: Both models were investigated by the fluorimetric resazurin assay after 96-h exposure.
HCT116 colorectal carcinoma cells (RRID:CVCL_0291 from ATCC) were cultivated in McCoy's 5A medium, supplemented with 10% heat-inactivated fetal bovine serum and 4 mM L-glutamine.
For 2D experiments, HCT116 cells were harvested from culture flasks by trypsinization, seeded in 100-μL aliquots into 96-well microculture plates (CytoOne, TC-treated, from Starlab) in densities of 2 × 10^3 cells per well, and incubated for 24 h prior to exposure to the test compounds. […] Stock solutions of test compounds were prepared in DMF, which were then diluted in McCoy's 5A-supplemented medium (not to exceed a final content of 0.5% v/v of organic solvent in the test plates), and serial dilutions were added in aliquots of 100 μL per well. […] After incubation for 4 h, fluorescence was measured with a microplate reader (Bio-Tek, SynergyHT) at a wavelength of 530 nm, additionally using a reference wavelength of 620 nm.
Series [5] relates to G4 forming sequences (h-Telo, bcl2, hTERT, Kit1, Kit2) and dsDNA. Description: FRET melting assay, G-quadruplex / B-DNA interaction. Format: binding, human. As to conditions: 60 mM potassium cacodylate pH 7.4, 2 h incubation. How it is done: G4s are DNA secondary motifs that play crucial roles in cancer development. […] The complexes were incubated with different G4 forming sequences: one derived from human telomere-forming (h-Telo) and four corresponding to promoter regions of oncogenes, namely, bcl2, hTERT, Kit1, and Kit2. For comparison, a self-complementary sequence called dsDNA was used to represent B-DNA (Table S2).
FRET experiments were conducted using an Applied Biosystems QuantStudio 6 PCR cycler in a 96-well format equipped with a FAM (6-carboxyfluorescein) filter. Oligonucleotide stock solutions, labelled with FAM and TAMRA (6-carboxytetramethylrhodamine) probes, were diluted to the desired concentration in a 60-mM potassium cacodylate buffer (pH 7.4). To fold the oligonucleotides into their B-DNA or G4 topologies, the solutions were heated to 95°C for 5 min and then allowed to cool slowly to room temperature overnight. The final concentration of the oligonucleotides was 0.2 μM, with a total volume of 30 μL in each well. Metal complexes were dissolved in DMF to prepare 2 mM stock solutions and further diluted with the buffer, where DMF concentration never exceeded 0.05%. Mixtures of oligonucleotides and metal compounds were left at room temperature for 2 h. Data were collected twice, each time in duplicate, over a temperature range of 25°C–95°C, with a ramp of 1°C every 30 s. FAM emission data were normalized from 0 to 1 to compare different datasets. After data normalization, we extrapolated the T1/2 values, i.e., the temperature at which normalized FAM emission is 0.5. The DNA concentration is expressed in strands.

The test system of series [6] is SW480 colon adenocarcinoma cells. Briefly: MTT assay, inhibition of cancer cell growth, SW480. As to conditions: read-out: 50% inhibitory concentration SW480, exposure time 96 h.
Procedure: CH1/PA-1 ovarian teratocarcinoma cells (CH1, RRID: CVCL_4992, provided by L. R. Kelland, CRC Center for Cancer Therapeutics, Institute of Cancer Research, Sutton, UK; confirmed by STR profiling as PA-1 ovarian teratocarcinoma cells at Multiplexion, Heidelberg, Germany), SW480 colon adenocarcinoma (RRID: CVCL_0546), and A549 lung adenocarcinoma cells (NCI-H2618, RRID: CVCL_A549; both cell lines were obtained from the American Type Culture Collection (ATCC), Manassas, VA, USA) were grown as adherent cultures in 75-cm^2 culture flasks (Starlab, Hamburg, Germany) by using minimal essential medium (MEM) supplemented with 1 mM sodium pyruvate, 4 mM L-glutamine, 1% (v/v) nonessential amino acids from 100-fold stock (all purchased from Sigma-Aldrich), and 10% heat-inactivated fetal bovine serum (Serana, Pessin, Germany).
The 3-(4,5-dimethylthiazol-2-yl)-2,5-diphenyl-2H tetrazolium bromide (MTT, Acros Organics, Geel, Belgium) assay was used to detect the cytotoxicity of the compounds after 96-h incubation. For this purpose, cells were harvested from culture flasks by trypsinization, seeded in 100-μL aliquots into 96-well microculture plates (Starlab, UK) in densities of 1 × 10^3 (CH1/PA-1), 2 × 10^3 (SW480), and 3 × 10^3 (A549) cells per well and incubated for 24 h prior to exposure to the test compounds. Stock solutions of test compounds were prepared in DMF, which were then diluted in MEM (not to exceed a final content of 0.5% v/v of organic solvent in the test plates), and serial dilutions were added in aliquots of 100 μL per well. […] After incubation for 4 h, the medium/MTT mixtures were removed, and the produced formazan crystals were dissolved in 150 μL DMSO per well. Optical densities at 550 nm were measured spectrophotometrically with a ELx808 Absorbance Microplate Reader (Bio-Tek, Winooski, VT, USA) by using a reference wavelength of 690 nm to correct for unspecific absorption.
The nature of series [7]: Conditional stability constant of Ru-MeIm bond and speciation modelling (pH-dependent UV-vis, HypSpec). Format: physicochemical. How it is done:
Calculation was done with HypSpec software based on the pH-dependent UV–vis spectra recorded after 3 days (Figures S27, S28). With the help of the computed constant, it was possible to model the speciation at various concentrations. […] At pH 6.0, a condition more characteristic of solid tumor tissues, the MeIm ligand tends to dissociate to a greater extent and only 44% and 76% of the original complex is found in solution at 0.1 and 1 μM concentrations, respectively.
The average water ionization constant, pKw, was determined as 13.76 ± 0.01, which is in good agreement with literature data. The initial volume of the samples was 15.0 mL. The complex concentration was 100 or 157 μM at an ionic strength of I = 0.1 M (KCl). Samples were degassed by bubbling purified argon through them for about 10 min prior to the measurements, and the inert gas was also passed over the solutions during the titrations. 0.70-mL batch samples were collected between pH 1 and 11; these samples were kept in dark, and after 2 and 3 days, their pH was remeasured, and the UV–vis spectra were recorded as well. Only small differences were observed between the 2- and 3-day spectra, and always, the 3-day samples were used for further evaluation. The conditional stability constant for 3c was calculated based on the following equilibrium: [RuCym(N,C)(Z)]^(1+n) + MeIm ⇌ [RuCym(N,C) (MeIm)]^+ + Z^n; (Z = Cl^– or H2O; n = −1 or 0). The calculation was done with the HypSpec software. […] The calculated stability constant is a conditional value and applies for I = 0.1 M KCl ionic strength.

Take `Cc1ccc(C(C)C)cc1.Cn1cc[n+]([Ru-]2[c]3cc(S(C)(=O)=O)ccc3-c3csc[n+]32)c1.O=[N+]([O-])[O-]` [Compound 3c, [((3-κN)-1-Methylimidazole)(4-(4-(methylsulfonyl)phenyl)thiazolato-κN,κC2′)(η^6-p-cymene)ruthenium(II)] Nitrate]: in series [1], the Tolerated dose entry is “at least 50 mg/kg”. In addition, the “Ruthenium level in liver” value in series [2] was about 20 mg/kg. For the same molecule, the “Ruthenium level in tumor” value in series [2] is given as about 1 mg/kg. Also, in series [3], the Solubility (as a rule, the concentration that dissolves in the medium under given conditions) is given as 24.6 mM. Moreover, the IC50 in series [4] was 226 ± 36 µM; in series [6], over 200 µM. The “Stabilization of oligonucleotides (G4s or B-DNA)” value in series [5] was “No stabilization”. For the same molecule, the “Conditional stability constant logK′ of Ru(p-cym)-MeIm bond” value in series [7] (I = 0.1 M KCl, 25°C, UV-vis spectra after 3 days, HypSpec) was 8.31 ± 0.03. The “Original complex found in solution” value in series [7] (pH 6.0, 0.1 μM complex, modelled from logK′) turned out to be 44%; in series [7] (pH 6.0, 1 μM complex, modelled from logK′), 76%. Moreover, in series [7] (pH 7.4, 0.1 μM complex, modelled from logK′), the “Intact (nondissociated) complex fraction” value worked out at 78%. For the same molecule, the “Stability of complex by modelled speciation” value in series [7] (pH 7.4, 1 μM and 10 μM complex concentrations) was “stable”.
